pIC50, pKi: −log10 of the molar value. Converted amounts (≈) assume the structure as drawn. The source made the active and inactive calls. No cut-off for these calls is given here.

The text below walks through data of ChEMBL document CHEMBL6103628, “Structural Optimization of Covalent Inhibitors for Deubiquitinase ChlaDUB1 of Chlamydia trachomatis as Antibiotic Agents” (J Med Chem, 2025).

Series [1] has as its target T1, Deubiquitinase and deneddylase Dub1 (Chlamydia trachomatis serovar L2 (strain ATCC VR-902B / DSM 19102 /434/Bu), UniProt B0B9A0).
T1 sequence (B0B9A0 whole entry): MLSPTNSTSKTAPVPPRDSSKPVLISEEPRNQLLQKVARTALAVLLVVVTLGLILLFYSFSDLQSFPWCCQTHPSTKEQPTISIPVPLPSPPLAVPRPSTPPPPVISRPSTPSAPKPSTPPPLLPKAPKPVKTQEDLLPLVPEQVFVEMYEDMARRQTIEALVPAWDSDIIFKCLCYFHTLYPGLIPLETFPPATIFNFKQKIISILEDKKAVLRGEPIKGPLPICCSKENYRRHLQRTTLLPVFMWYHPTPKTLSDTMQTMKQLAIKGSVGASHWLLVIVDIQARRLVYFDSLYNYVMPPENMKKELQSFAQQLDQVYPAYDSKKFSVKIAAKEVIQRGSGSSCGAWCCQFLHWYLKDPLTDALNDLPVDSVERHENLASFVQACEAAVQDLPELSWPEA
Description: Inhibition of recombinant Chlamydia trachomatis DUB1 (130 to 401 residues) using Ub-Rh110Gly as fluorogenic substrate incubated for 60 mins by enzymatic analysis. As to conditions: for pIC50: read-out: IC50.

The next series has as its system HeLa. Description: Cytotoxicity against human HeLa cells assessed as cell viability at 4 to 256 ug/mL measured after 20 hrs by XTT assay. The format is toxicity, cell-based. As to conditions: dose 4-256 µg/ml.
Series [2] addresses T2, Deubiquitinase and deneddylase Dub1 (Chlamydia trachomatis serovar L2 (strain ATCC VR-902B / DSM 19102 /434/Bu)) (UniProt B0B9A0).
T2 sequence (whole entry): T1 sequence (B0B9A0 whole entry)
Description: Inhibition of recombinant Chlamydia trachomatis DUB1 (130 to 401 residues) using Ub-Rh110Gly as fluorogenic substrate incubated for 60 mins by enzymatic analysis relative to control.

For a further series, the system named is HEp-2. The series is described as follows: Cytotoxicity against human HEp-2 cells assessed as reduction in cell viability at 4 to 256 ug/mL measured after 20 hrs by XTT assay. The format is toxicity, cell-based. The note with it: hep-2, 20 h, dose 4-256 µg/ml.
Series [3] has as its target T2, Deubiquitinase and deneddylase Dub1 (Chlamydia trachomatis serovar L2 (strain ATCC VR-902B / DSM 19102 /434/Bu)). The series is described as follows: Covalent inhibition of recombinant Chlamydia trachomatis DUB1 (130 to 401 residues) using Ub-Rh110Gly as fluorogenic substrate incubated for 10 to 360 mins by enzymatic analysis. The note with it: time 10-360 min.
Series [4] has as its target T1, Deubiquitinase and deneddylase Dub1. The series is described as follows: Binding affinity to recombinant Chlamydia trachomatis DUB1 (130 to 401 residues) assessed as inhibition constant using Ub-Rh110Gly as fluorogenic substrate incubated for 360 mins by Michaelis-Menten analysis.
The target is the same in series [5]. Description: Inhibition of recombinant Chlamydia trachomatis DUB1 (130 to 401 residues) using Ub-Rh110Gly as fluorogenic substrate incubated for 360 mins by enzymatic analysis.
For series [6], the target named is T2, Deubiquitinase and deneddylase Dub1 (Chlamydia trachomatis serovar L2 (strain ATCC VR-902B / DSM 19102 /434/Bu)). The series is described as follows: Binding affinity to recombinant Chlamydia trachomatis DUB1 (130 to 401 residues) assessed as Kinact/Ki ratio using Ub-Rh110Gly as fluorogenic substrate incubated for 360 mins by Michaelis-Menten analysis.
Series [7] shares this target. The series is described as follows: Binding affinity to recombinant Chlamydia trachomatis DUB1 (130 to 401 residues) assessed as inactivation rate constant (Kinact) using Ub-Rh110Gly as fluorogenic substrate incubated for 360 mins by Michaelis-Menten analysis.
Series [8] has as its target T1, Deubiquitinase and deneddylase Dub1. The series is described as follows: Inhibition of recombinant Chlamydia trachomatis DUB1 (130 to 401 residues) using Ub-Rh110Gly as fluorogenic substrate incubated for 2 mins by enzymatic analysis.
The target is the same in series [9]. Description: Inhibition of recombinant Chlamydia trachomatis DUB1 (130 to 401 residues) using Ub-Rh110Gly as fluorogenic substrate incubated for 20 mins by enzymatic analysis.
In a further series the test system is Chlamydia trachomatis. The series is described as follows: Anti-chlamydial activity against Chlamydia trachomatis serovar L2 infected in human HEp-2 cells assessed as inhibition of chlamydial inclusion incubated for 16 hrs by Alexa488/DAPI staining based immunofluorescence assay. Type of series: functional, organism-based. The note with it: serovar L2, HEp-2, 16 h.

Series [10] concerns the target T2, Deubiquitinase and deneddylase Dub1 (Chlamydia trachomatis serovar L2 (strain ATCC VR-902B / DSM 19102 /434/Bu)). Description: Inhibition of recombinant Chlamydia trachomatis DUB1 (130 to 401 residues) using Ub-Rh110Gly as fluorogenic substrate at 100 to 500 uM incubated for 20 to 240 mins by enzymatic analysis relative to control. The note with it: dose 100-500 µM, time 20-240 min.

For series [11] the target is unchanged. Description: Inhibition of recombinant Chlamydia trachomatis DUB1 (130 to 401 residues) using Ub-Rh110Gly as fluorogenic substrate at highest concentration incubated for 60 to 360 mins by enzymatic analysis. As to conditions: time 60-360 min.
For series [12] the target is unchanged. The series is described as follows: Non-covalent inhibition of recombinant Chlamydia trachomatis DUB1 (130 to 401 residues) using Ub-Rh110Gly as fluorogenic substrate incubated for 10 to 360 mins by enzymatic analysis. As to conditions: time 10-360 min.

`N#Cc1nccc(C(=O)NCc2c[nH]c3cccc(OCc4ccccc4)c23)n1`: the pIC50 in [1] was 3.74.

As to `N#Cc1nccc(C(=O)NCc2c[nH]c3ccc(OCc4ccccc4)cc23)n1`, the Activity result in the series with HeLa is listed as “Non-toxic”; in the series with HEp-2, “Toxic”. For the same molecule, in series [1], the pIC50 is 5.54. Further, the inhibition in [2] was 100%.

Regarding `N#Cc1nccc(C(=O)NCCc2c[nH]c3ccccc23)n1`, the negative logarithm of the IC50 (pIC50) in series [1] is 4.64.

With `N#Cc1ncc(C(=O)N2CCc3cc(C(=O)NCc4ccccc4)ccc3C2)cn1`, in series [1], the pIC50 is 4.11.

Regarding `N#Cc1ncc(C(=O)NCc2ccc(C(=O)NCc3ccccc3)cc2)cn1`, in series [3], the inhibition result is “Active”. Moreover, the pIC50 in [1] is 4.57.

As to `N#Cc1nccc(C(=O)Nc2n[nH]c3ccccc23)n1`, the negative-log IC50 (pIC50) in [1] was 4.64. In series [2], the inhibition came to 100%.

In the case of `COc1ccccc1CNC(=O)[C@H]1CC[C@H](CNC(=O)c2cnc(C#N)nc2)CC1`, the pIC50 in series [1] is 3.91.

As to `N#Cc1nccc(C(=O)NCc2c[nH]c3ccccc23)n1`, in [4], the pKi is 3.50. Besides, the pIC50 in [5] was 5.77; in series [1], 5.21. Further, the Ratio in series [6] stood at 22.4 M⁻¹ s⁻¹. In series [7], the Kinact amounted to 0.422 min⁻¹.

As for `Cn1ccc(NC(=O)c2ccnc(C#N)n2)n1`, in series [1], the pIC50 is 4.33. In addition, the IC50 in series [1] (read-out: pIC50 (converted)) is 45.7 µM.

Regarding `N#Cc1nccc(C(=O)NCc2c[nH]c3c(OCc4ccccc4)cccc23)n1`, in [1], the pIC50 is 3.74.

Consider `N#Cc1nccc(NC(=O)Cc2c[nH]c3ccccc23)n1`, for which, in series [1], the pIC50 was 3.76.

`N#Cc1nc(C(=O)NCc2c[nH]c3ccccc23)co1`: the Activity entry in the series with HeLa and with HEp-2 was “Toxic” each time. In addition, in series [4], the pKi was 3.93. Besides, the pIC50 is 4.80 in series [8] and 5.51 in series [9]. In addition, the IC50 in the series on Chlamydia trachomatis was 32.2 µg/mL (≈ 121 µM).

For the molecule `Cn1cc(CNC(=O)c2ccnc(C#N)n2)c2ccccc21`, the pIC50 in [1] is 4.82.

Consider `N#Cc1nccc(C(=O)NCc2n[nH]c3ccccc23)n1`, for which the pIC50 in series [1] is 4.72. For the same molecule, in [2], the inhibition came to 100%.

Turning to `N#Cc1nccc(C(=O)NCc2c[nH]c3cc(OCc4ccccc4)ccc23)n1`, in [1], the pIC50 was 4.82.

Regarding `COc1ccc2c(CNC(=O)c3ccnc(C#N)n3)c[nH]c2c1`, in series [1], the pIC50 is 5.12.

For `COc1ccc2[nH]cc(CNC(=O)c3ccnc(C#N)n3)c2c1`, the pIC50 in series [1] was 5.24.

Regarding `N#Cc1ncc(C(=O)NCc2cccc(C(=O)NCc3ccccc3)c2)cn1`, the pIC50 in [1] was 4.66.

As for `N#Cc1nccc(C(=O)NCc2ccn(C(=O)Cc3ccccc3)n2)n1`, in [3], the inhibition result is “Active”. Further, the inhibition in series [10] was found to be 100%. In addition, the pIC50 in series [1] was 4.64.

Consider `N#Cc1ncc(C(=O)NCc2ccc(C(=O)NCc3ccccc3)c3ccccc23)cn1`, for which the inhibition entry in series [11] is given as “Active; Complete Inhibition Was Not Achieved”. Further, the inhibition entry in [12] is “Active”. In addition, the pIC50 in [1] was 5.00.

As to `N#Cc1nccc(C(=O)Nc2cc[nH]n2)n1`, the pIC50 in series [1] was 4.64.

For `N#Cc1ncc(NC(=O)Cc2c[nH]c3ccccc23)cn1`, the pIC50 in [1] was 4.03.
